Measurements from patent publication US20110046107A1, “SULFONYL-SUBSTITUTED CARBAPENEM COMPOUNDS” (priority 2007, published 2011).
≈ marks a conversion by molar mass, not a printed value. Like-named read-outs stand apart in the source and are kept apart here.

Columns and labels:
Assay in all cases: In vitro antibacterial activity, agar dilution method (clinical isolates)
Format in all cases: cell-based
Citrobacter freundii = conditions: clinically isolated strains, Gram-negative
Text: (§1) Bacterial strains for test: All the bacterial strains are clinical isolates and purchased from public organizations. methicillin-sensitive staphylococcus aureus (MS SA), methicillin-resistant staphylococcus aureus (MRSA), methicillin-sensitive staphylococcus epidermidis (MSSE), methicillin-resistant staphylococcus epidermidis (MRSE), streptococcus pyogenes, penicillin-sensitive streptococcus pneumoniae (PSSP), penicillin-resistant streptococcus pneumoniae (PRSP), Escherichia coli, Citrobacter freundii, Enterobacter cloacae, Hemophilus influenza, Klebsiella pneumonia (producing ESBL), Morganella morganii, Proteus mirabilis, Serratia marcescens, and Pseudomonas aeruginosa.
(§2) Drugs to be tested: compounds of the invention prepared in the examples; the chemical names, structural formulae, preparation materials, and preparation methods are provided in the preparation examples of the compounds;
(§3) Meropenem (Meropenem for injection), Ertapenem (Ertapenem for injection), and Doripenem (Doripenem for injection) commercially available
(§4) Experimental method: the agar dilution method, by reference to Methodology of Pharmacological Experiment (XU Shuyun et al, published by the Peoples Medical Publishing House, 1st Edition, August, 1982; 3rd Edition, 5th printing, January 2002, p 1659-1660).

Enterobacter cloacae = conditions: read-out: MIC90 Enterobacter cloacae
Text: as §1, §2, §3, §4

Escherichia coli = conditions: clinically isolated strains, Gram-negative, read-out: MIC90 E. coli
Text: as §1, §2, §3, §4

Hemophilus influenza = conditions: clinically isolated strains, Gram-negative, agar dilution; read-out: MIC90 Hemophilus influenza
Text: as §1, §2, §3, §4

[1] = tested on: Klebsiella pneumonia (producing ESBL); conditions: Klebsiella pneumoniae, read-out: MIC90 Klebsiella pneumonia
Text: as §1, §2, §3, §4

Morganella morganii = conditions: clinically isolated strains, Gram-negative
Text: as §1, §2, §3, §4

Proteus mirabilis = conditions: clinically isolated strains, Gram-negative, agar dilution, read-out: MIC90 Proteus mirabilis
Text: as §1, §2, §3, §4

Pseudomonas aeruginosa = conditions: clinically isolated strains, Gram-negative
Text: as §1, §2, §3, §4

Serratia marcescens = conditions: clinically isolated strains, Gram-negative, agar dilution, read-out: MIC90 Serratia marcescens
Text: as §1, §2, §3, §4

[2] = tested on: methicillin-resistant staphylococcus aureus (MRSA); conditions: clinically isolated strains, Gram-positive, read-out: MIC90 S. aureus MRSA
Text: as §1, §2, §3, §4

[3] = tested on: methicillin-resistant staphylococcus epidermidis (MRSE); conditions: clinically isolated strains, Gram-positive, read-out: MIC90 S. epidermidis MRSE
Text: as §1, §2, §3, §4

[4] = tested on: methicillin-sensitive staphylococcus aureus (MSSA); conditions: clinically isolated strains, Gram-positive, agar dilution, read-out: MIC90 S. aureus MSSA
Text: as §1, §2, §3, §4

[5] = tested on: methicillin-sensitive staphylococcus epidermidis (MSSE); conditions: read-out: MIC90 S. epidermidis MSSE
Text: as §1, §2, §3, §4

[6] = tested on: penicillin-resistant streptococcus pneumoniae (PRSP); conditions: clinically isolated strains, Gram-positive, read-out: MIC90 S. pneumoniae PRSP
Text: as §1, §2, §3, §4

[7] = tested on: penicillin-sensitive streptococcus pneumoniae (PSSP); conditions: clinically isolated strains, Gram-positive, read-out: MIC90 S. pneumoniae PSSP
Text: as §1, §2, §3, §4

streptococcus pyogenes = conditions: clinically isolated strains, Gram-positive, read-out: MIC90 S. pyogenes
Text: as §1, §2, §3, §4

[8] = clinically isolated strains, Gram-negative, agar dilution
[9] = clinically isolated strains (producing ESBL), Gram-negative, agar dilution
[10] = clinically isolated strains, Gram-positive, agar dilution

SMILES	MIC90 (Citrobacter freundii) [µg/mL]	MIC90 (Enterobacter cloacae; [8]) [µg/mL]	MIC90 (Escherichia coli) [µg/mL]	MIC90 (Hemophilus influenza) [µg/mL]	MIC90 [1, 9] [µg/mL]	MIC90 (Morganella morganii) [µg/mL]	MIC90 (Proteus mirabilis) [µg/mL]	MIC90 (Pseudomonas aeruginosa) [µg/mL]	MIC90 (Serratia marcescens) [µg/mL]	MIC90 [2] [µg/mL]	MIC90 [3] [µg/mL]	MIC90 [4] [µg/mL]	MIC90 [5, 10] [µg/mL]	MIC90 [6] [µg/mL]	MIC90 [7] [µg/mL]	MIC90 (streptococcus pyogenes) [µg/mL]	MIC90 [1] [µg/mL]	MIC90 [5] [µg/mL]	MIC90 (Enterobacter cloacae) [µg/mL]
C[C@@H](O)[C@H]1C(=O)N2C(C(=O)O)=C(SC3CCCN(S(N)(=O)=O)C3)[C@H](C)[C@H]12 (stereo partly drawn) [Compound 3, (4R,5S,6S)-3-[N-aminosulfonyl-piperidin-3-yl]thio-6-[(1R)-1-hydroxyethyl]-4-methyl-7-oxo-1-aza-bicyclo-[3.2.0]hept-2-ene-2-carboxylic acid]	0.063 (≈ 0.155 µM)	0.125 (≈ 0.308 µM)	0.032 (≈ 0.0789 µM)	0.25 (≈ 0.617 µM)	0.063 (≈ 0.155 µM)	0.032 (≈ 0.0789 µM)	0.125 (≈ 0.308 µM)	16 (≈ 39.5 µM)	0.125 (≈ 0.308 µM)	16 (≈ 39.5 µM)	8 (≈ 19.7 µM)	0.125 (≈ 0.308 µM)	0.125 (≈ 0.308 µM)	0.5 (≈ 1.23 µM)	0.016 (≈ 0.0395 µM)	0.008 (≈ 0.0197 µM)	–	–	–
C[C@@H](O)[C@H]1C(=O)N2C(C(=O)O)=C(S[C@@H]3CN[C@H](C(=O)Nc4cccc(C(=O)O)c4)C3)[C@H](C)[C@H]12 [ertapenem, Ertapenem, reference compound]	0.25 (≈ 0.526 µM)	2 (≈ 4.21 µM)	0.25 (≈ 0.526 µM)	1 (≈ 2.1 µM)	1 (≈ 2.1 µM)	0.25 (≈ 0.526 µM)	1 (≈ 2.1 µM)	32 (≈ 67.3 µM)	0.5 (≈ 1.05 µM)	> 64	64 (≈ 135 µM)	0.5 (≈ 1.05 µM)	0.5 (≈ 1.05 µM)	2 (≈ 4.21 µM)	0.063 (≈ 0.132 µM)	0.032 (≈ 0.0673 µM)	–	–	–
C[C@@H](O)[C@H]1C(=O)N2C(C(=O)O)=C(SC3CNCN(S(N)(=O)=O)C3)[C@H](C)[C@H]12 (stereo partly drawn) [Compound 5, (4R,5S,6S)-3-[1(2H)-aminosulfonyl-tetrahydropyrimidin-5-yl]-thio-6-[(1R)-1-hydroxyethyl]-4-methyl-7-oxo-1-aza-bicyclo-[3.2.0]hept-2-ene-2-carboxylic acid]	0.032 (≈ 0.0787 µM)	0.25 (≈ 0.615 µM)	0.032 (≈ 0.0787 µM)	0.125 (≈ 0.308 µM)	–	0.063 (≈ 0.155 µM)	0.063 (≈ 0.155 µM)	16 (≈ 39.4 µM)	0.063 (≈ 0.155 µM)	16 (≈ 39.4 µM)	16 (≈ 39.4 µM)	0.25 (≈ 0.615 µM)	–	1 (≈ 2.46 µM)	0.016 (≈ 0.0394 µM)	0.016 (≈ 0.0394 µM)	0.125 (≈ 0.308 µM)	0.125 (≈ 0.308 µM)	–
C[C@@H](O)[C@H]1C(=O)N2C(C(=O)O)=C(SC3CN(S(=O)(=O)NCC(N)=O)C3)[C@H](C)[C@H]12 [Compound 10]	0.032 (≈ 0.0736 µM)	–	0.008 (≈ 0.0184 µM)	0.125 (≈ 0.288 µM)	0.063 (≈ 0.145 µM)	0.016 (≈ 0.0368 µM)	0.063 (≈ 0.145 µM)	8 (≈ 18.4 µM)	0.063 (≈ 0.145 µM)	8 (≈ 18.4 µM)	16 (≈ 36.8 µM)	0.063 (≈ 0.145 µM)	0.063 (≈ 0.145 µM)	5 (≈ 11.5 µM)	0.008 (≈ 0.0184 µM)	0.008 (≈ 0.0184 µM)	–	–	0.125 (≈ 0.288 µM)
